SMILES	melting point [°C]
c1ccc2[nH]c(CN3CCN(c4nsc5ccccc45)CC3)cc2c1 [Example 9, 3-[4-(1H-Indol-2-ylmethyl)-piperazin-1-yl]-benzo[d]isothiazole]	150 to 152
FC(F)(F)c1cccc(N2CCN(Cc3cc4ccccc4[nH]3)CC2)c1 [Example 5, 2-[4-(3-Trifluoromethyl-phenyl)-piperazin-1-ylmethyl]-1 H-indole]	192 to 194
O=C(c1cc2cc(F)ccc2[nH]1)N1CCN(c2ccccc2[N+](=O)[O-])CC1 [Example 7, (5-Fluoro-1H-indol-2-yl)-[4-(2-nitro-phenyl)-piperazin-1-yl]-methanone]	184 to 188
Fc1ccc2[nH]c(CN3CCN(c4ncccn4)CC3)cc2c1 [Example 17, 5-Fluoro-2-(4-pyrimidin-2-yl-piperazin-1-ylmethyl)-1H-indole]	199
O=[N+]([O-])c1ccccc1N1CCN(Cc2cc3ccccc3[nH]2)CC1 [Example 12, 2-[4-(2-Nitro-phenyl)-piperazin-1-ylmethyl]-1H-indole]	210 to 211
O=[N+]([O-])c1ccccc1N1CCN(Cc2cc3cc(F)ccc3[nH]2)CC1 [Example 13, 5-Fluoro-2-[4-(2-nitro-phenyl)-piperazin-1-ylmethyl]-1H-indole]	236
O=C(c1cc2cc(F)ccc2[nH]1)N1CCN(c2cccc(C(F)(F)F)c2)CC1 [Example 8, (5-Fluoro-1H-indol-2-yl)-[4-(3-trifluoromethyl-phenyl)-piperazin-1-yl]-methanone]	198
c1ccc2[nH]c(CN3CCN(c4cccc5ccccc45)CC3)cc2c1 [Example 11, 2-(4-Naphthalen-1-yl-piperazin-1-ylmethyl)-1H-indole]	238 to 239
O=C(c1cc2cc(F)ccc2[nH]1)N1CCN(c2ccccn2)CC1 [Example 18, (5-Fluoro-1H-indol-2-yl)-(4-pyridin-2-yl-piperazin-1-yl)-methanone]	214 to 218
Fc1ccc2[nH]c(CN3CCN(c4cccc5ccccc45)CC3)cc2c1 [Example 14, 5-Fluoro-2-(4-naphthalen-1-yl-piperazin-1-ylmethyl)-1H-indole]	249 to 250
Fc1ccc2[nH]c(CN3CCN(c4cccc(C(F)(F)F)c4)CC3)cc2c1 [Example 10, 5-Fluoro-2-[4-(3-trifluoromethyl-phenyl)-piperazin-1-ylmethyl]-1H-indole]	196 to 197
Oc1ccc2[nH]c(CN3CCN(c4cccc(C(F)(F)F)c4)CC3)cc2c1 [Example 4, 2-[4-(3-Trifluoromethyl-phenyl)-piperazin-1-ylmethyl]-1H-indol-5-ol]	188 to 190

From patent US20030100757A1, “2-(4-aryl or heteroaryl-piperazin-1-ylmethyl)-1H-indole derivatives interacting with the dopamine D4 receptor” (Pfizer Inc., priority 2001, published 2003)
